Biological target: EGFR (human) (UniProt P00533)
Sequence (P00533 whole entry, looked up): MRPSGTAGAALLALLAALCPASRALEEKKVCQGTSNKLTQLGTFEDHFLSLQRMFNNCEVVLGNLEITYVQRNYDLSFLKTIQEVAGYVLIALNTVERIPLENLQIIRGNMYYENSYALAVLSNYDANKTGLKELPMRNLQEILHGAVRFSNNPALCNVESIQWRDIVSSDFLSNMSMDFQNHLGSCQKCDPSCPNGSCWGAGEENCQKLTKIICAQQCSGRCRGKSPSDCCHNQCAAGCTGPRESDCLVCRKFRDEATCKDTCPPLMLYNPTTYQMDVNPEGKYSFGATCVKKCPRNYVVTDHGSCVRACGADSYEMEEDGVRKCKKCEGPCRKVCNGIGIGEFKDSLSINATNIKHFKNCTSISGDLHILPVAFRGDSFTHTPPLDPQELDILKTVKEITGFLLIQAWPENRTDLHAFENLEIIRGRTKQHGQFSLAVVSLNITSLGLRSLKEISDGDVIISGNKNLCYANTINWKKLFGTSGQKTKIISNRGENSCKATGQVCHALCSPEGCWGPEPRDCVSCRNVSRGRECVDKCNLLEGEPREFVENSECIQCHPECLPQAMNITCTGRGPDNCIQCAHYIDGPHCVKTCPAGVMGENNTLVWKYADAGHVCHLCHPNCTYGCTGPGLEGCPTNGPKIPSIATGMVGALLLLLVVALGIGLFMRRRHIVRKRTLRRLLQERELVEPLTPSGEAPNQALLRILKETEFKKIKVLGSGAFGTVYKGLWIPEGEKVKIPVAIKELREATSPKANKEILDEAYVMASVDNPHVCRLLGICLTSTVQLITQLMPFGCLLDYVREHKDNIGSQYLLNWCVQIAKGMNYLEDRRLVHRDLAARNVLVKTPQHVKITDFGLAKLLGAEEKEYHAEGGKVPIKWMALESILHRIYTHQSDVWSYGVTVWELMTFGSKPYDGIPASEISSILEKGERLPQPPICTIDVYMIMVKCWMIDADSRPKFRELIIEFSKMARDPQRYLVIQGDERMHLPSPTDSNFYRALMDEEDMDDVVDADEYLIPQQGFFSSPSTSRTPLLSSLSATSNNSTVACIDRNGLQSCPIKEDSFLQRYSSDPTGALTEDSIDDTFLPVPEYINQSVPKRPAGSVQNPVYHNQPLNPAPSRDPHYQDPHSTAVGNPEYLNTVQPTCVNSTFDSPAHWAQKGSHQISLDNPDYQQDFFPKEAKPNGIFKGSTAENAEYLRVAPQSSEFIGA

Row | IC50 [nM] | Compound
1 | < 100 | CN1CCC(c2nc(-c3cccc(NC(=O)c4c(F)cccc4F)c3)c(-c3ccnc(Nc4ccc5c(c4)CN(C)CC5)n3)s2)CC1
2 | < 100 | CCc1nc(-c2cccc(NC(=O)c3c(F)cccc3F)c2)c(-c2ccnc(Nc3ccc(OCCN4CCCC4)c(Cl)c3)n2)s1
3 | < 100 | O=C1COc2cc(Nc3nccc(-c4scnc4-c4cccc(NC(=O)c5cc(F)ccc5F)c4)n3)ccc2N1
4 | < 100 | Cc1nc(-c2cccc(NC(=O)c3cccc(C(F)(F)F)c3)c2)c(-c2ccnc(Nc3ccc4c(c3)CN(C)CC4)n2)s1
5 | < 100 | CNc1nc(-c2cccc(NC(=O)c3cc(F)ccc3F)c2)c(-c2ccnc(Nc3ccc(OC)c(F)c3)n2)s1
6 | < 100 | Nc1nc(-c2cccc(NC(=O)c3cc(F)ccc3F)c2)c(-c2ccnc(Nc3cccc(-c4cnco4)c3)n2)s1
7 | < 100 | CC(C)(C)S(=O)(=O)Cc1nc(-c2cccc(NC(=O)c3c(F)cccc3F)c2)c(-c2ccnc(Nc3ccc(OCCN4CCCC4)c(Cl)c3)n2)s1
8 | < 100 | COCCOc1ccc(Nc2nccc(-c3sc(N)nc3-c3cccc(NC(=O)c4c(F)cccc4F)c3)n2)cc1F
9 | < 100 | CN(C)c1nc(-c2cccc(NC(=O)c3c(F)cccc3F)c2)c(-c2ccnc(Nc3cccc(CN4CCCC4)c3)n2)s1
10 | < 100 | CN(C)CCOc1ccc(Nc2nccc(-c3sc(N)nc3-c3cc(NC(=O)c4c(F)cccc4F)ccc3F)n2)cc1Cl
11 | < 100 | CS(=O)(=O)CCN1CCN(c2ccc(Nc3nccc(-c4scnc4-c4cccc(NC(=O)c5c(F)cccc5F)c4)n3)cc2F)CC1
12 | < 100 | Cc1nc(-c2cccc(NC(=O)c3cccc(Cl)c3)c2)c(-c2ccnc(Nc3ccc(OCCN(C)C)c(Cl)c3)n2)s1
13 | < 100 | Cc1cc(-c2sc(N)nc2-c2cccc(NC(=O)c3c(F)cccc3F)c2)nc(Nc2cccc(OCCN(C)C)c2)n1
14 | < 100 | Nc1nc(-c2cccc(OCc3ccccc3)c2)c(-c2ccnc(Nc3ccc4c(c3)CNCC4)n2)s1
15 | < 100 | CN(C)CCOc1ccc(Nc2nccc(-c3sc(N)nc3-c3cccc(NC(=O)c4c(F)cccc4F)c3)n2)cc1Cl
16 | < 100 | CN(C)Cc1cccc(Nc2nccc(-c3scnc3-c3cccc(NC(=O)Cc4cccs4)c3)n2)c1
17 | < 100 | Nc1nc(-c2cccc(NC(=O)Cc3cccs3)c2)c(-c2ccnc(Nc3cccc(F)c3)n2)s1
18 | < 100 | CN(C)CCOc1cccc(Nc2nccc(-c3sc(N)nc3-c3cccc(C(=O)Nc4c(F)cccc4F)c3)n2)c1
19 | < 100 | CN1CCc2ccc(Nc3nccc(-c4sc(C5CCNCC5)nc4-c4cccc(NC(=O)c5c(F)cccc5F)c4)n3)cc2C1
20 | < 100 | Nc1nc(-c2cccc(NC(=O)c3c(F)cccc3F)c2)c(-c2ccnc(Nc3cccc(-c4cnco4)c3)n2)s1
21 | < 100 | O=C1COc2ccc(Nc3nccc(-c4scnc4-c4cccc(NC(=O)c5cc(F)ccc5F)c4)n3)cc2N1
22 | < 100 | CN(C)CCOc1cccc(Nc2nccc(-c3scnc3-c3cccc(NC(=O)Cc4cccs4)c3)n2)c1
23 | < 100 | Cc1nc(-c2cccc(NC(=O)c3c(F)cccc3F)c2)c(-c2ccnc(Nc3ccc(OC4CCN(C(=O)OCc5ccccc5)CC4)c(F)c3)n2)s1
24 | < 100 | CN1CCN(c2nc(-c3cccc(NC(=O)c4c(F)cccc4F)c3)c(-c3ccnc(Nc4cccc(CN5CCCC5)c4)n3)s2)CC1
25 | < 100 | CC(C)(C)c1nc(-c2cccc(NC(=O)c3c(F)cccc3F)c2)c(-c2ccnc(Nc3cccc(CN4CCCC4)c3)n2)s1
26 | < 100 | COc1ccc(Nc2nccc(-c3sc(N)nc3-c3cccc(NC(=O)c4c(F)cccc4F)c3)n2)cc1N(C)C
27 | < 100 | CN(C)Cc1cccc(Nc2nccc(-c3scnc3-c3cccc(NC(=O)c4c(F)cccc4F)c3)n2)c1
28 | < 100 | COCCOc1ccc(Nc2nccc(-c3sc(N)nc3-c3cccc(NC(=O)c4cccn4C)c3)n2)cc1F

— the Kinase Knowledgebase extract (Sharma et al. 2016)
